According to patent publication US11059778B2, “Cannabinoid receptor CB2 ligand 4-(aminomethyl)-N, N-dialkylanilines” (UNIVERSITY OF PITTSBURGH—OF THE COMMONWEALTH SYSTEM OF …, priority 2015, dated 2021):

Columns and labels:
[1] = molecular target: T1, human CB2 receptors (Homo sapiens, UniProt P34972); test: [3H]CP-55,940 radioligand competition binding assay, CB2; conditions: for Ki: CHO cell membranes, [3H]CP-55,940 displacement
T1 construct: expressed in transfected cells
Method: (§1) Binding assay. The bioassay is carried out using the Perkin Elmer 96-well Top Counter. This bioassay is also known as a competition binding assay and the biological evaluation is to determine the CB receptor binding affinity (Ki) of the screened ligands by displacing [^3H]-CP-55940 (or other radioligands). The brief procedure is given below.
(§2) Perkin Elmer 96-well TopCounter is used at PMLSC and in our laboratory to determine the CB receptor binding affinity (Ki) of the in-silico screened ligands by displacing [^3H]-CP-55,940 (or other radioligands). In competition binding experiments, the tested compound dilutions are carried out in triplicate in TME buffer (25 mM Tris, 5 mM MgCl2, 1 mM EDTA) containing 0.1% (w/v) fatty acid free bovine serum albumin (BSA), pH 7.4. Various concentrations of the tested compound are added in the same volume to 0.5 nM [^3H]CP-55,940. TME buffer and cell membrane preparations expressing CB receptors (2.5 μg per well) are added to a final volume of 200 μL. For the saturation binding experiments, varying concentrations of [^3H]CP-55,940 (0.05-1.5 nM) with or without 2 μM of unlabeled ligands (CP-55,940 or WIN-55,212-2) are incubated with the receptor membrane preparations to determine Kd and nonspecific binding. After the binding suspensions are incubated at 30° C. for 1 hr, the reaction is terminated by rapid filtration through microfiltration plates coated with 0.5% polyethylenimine (Unifilter GF/B filterplate, PerkinElmer) followed by 5 washes with ice cold TME buffer containing 0.5% BSA on a Packard Filtermate Harvester (PerkinElmer). The plates are then dried overnight and 30 μl MicroScint 0 scintillation cocktail are added to each well of the dried filter plates. Then the bound radioactivity is counted using a Perkin Elmer 96-well TopCounter. The Ki is calculated by using nonlinear regression analysis (Prism 5; GraphPad Software Inc., San Diego, Calif.), with the Kd values for [^3H]CP-55,940 determined from saturation binding experiments. This assay is used for determining binding affinity parameters (Ki) of ligand-receptor interactions for the CB receptor.
(§3) The affinities of the synthesized ligands were determined in radioligand binding studies at human CB1 and CB2 receptors using [3H](—)-cis-3-[2-hydroxy-4-(1,1 dimethylheptyl)phenyl]-trans-4-(3-hydroxypropyl) cyclohexanol (CP55,940) as a CB receptor radioligand. As a source for human CB1 and CB2 receptors, membrane preparations of Chinese hamster ovary (CHO) cells stably expressing the respective receptor subtype were utilized (50 μg of protein/vial). CB2 selective ligand SR144528 (CB2 inverse agonist) and CB1 ligand SR141716 (CB1 inverse agonist) were used as positive controls, respectively, along with the tested compounds in bioassays experiments. Only compounds with high CB2 receptor binding potency was chosen to carry out the CB1 binding assay. CB ligand competition binding assay was carried out as described previously in Gertsch, J., et al., Beta-caryophyllene is a dietary cannabinoid. Proc Natl Acad Sci USA 2008, 105 (26), 9099-104. Briefly, non-radioactive (or cold) ligands (synthesized derivatives and reference ligands) were diluted in a binding buffer (50 mM Tris-HCl (pH 7.4), 5 mM MgC12, 2.5 mM EGTA, and 0.1% (w/v) fatty acid free BSA), supplemented with 10% dimethyl sulfoxide and 0.4% methyl cellulose. Each assay plate well contained a total of 200 μL of reaction mixture composed of 5 μg of CB1 (or 2.5 μg CB2) membrane protein, labeled [3H]-CP-55,940 ligand at a final concentration of 2.5 nM, and the unlabeled ligand at its varying dilutions as stated above. Plates were incubated at 30° C. for 1 hour with gentle shaking.
(§4) The reaction was terminated by rapid filtration through Unifilter GF/B filter plates using a Unifilter Cell Harvester (PerkinElmer). After the plate was allowed to dry overnight, 30 μL MicroScint-0 cocktail (PerkinElmer) was added to each well, and the radioactivity was counted using a PerkinElmer TopCounter. […]

[2] = molecular target: T2, human CB1 receptors (Homo sapiens, UniProt P21554); test: [3H]CP-55,940 radioligand competition binding assay, CB1; conditions: CHO cell membranes, [3H]CP-55,940 displacement
T2 construct: expressed in transfected cells
Method: as §1, §2, §3, §4

T1 sequence (P34972 whole entry): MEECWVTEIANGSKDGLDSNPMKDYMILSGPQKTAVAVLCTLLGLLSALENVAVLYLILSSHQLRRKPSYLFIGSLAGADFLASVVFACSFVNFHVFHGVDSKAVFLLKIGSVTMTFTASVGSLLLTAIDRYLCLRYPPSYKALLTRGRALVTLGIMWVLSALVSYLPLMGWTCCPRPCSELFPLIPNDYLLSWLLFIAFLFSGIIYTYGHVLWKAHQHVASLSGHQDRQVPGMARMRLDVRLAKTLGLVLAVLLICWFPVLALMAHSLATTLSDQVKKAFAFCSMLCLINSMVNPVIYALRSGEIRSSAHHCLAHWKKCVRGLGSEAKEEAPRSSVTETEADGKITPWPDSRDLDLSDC
T2 sequence (P21554 whole entry): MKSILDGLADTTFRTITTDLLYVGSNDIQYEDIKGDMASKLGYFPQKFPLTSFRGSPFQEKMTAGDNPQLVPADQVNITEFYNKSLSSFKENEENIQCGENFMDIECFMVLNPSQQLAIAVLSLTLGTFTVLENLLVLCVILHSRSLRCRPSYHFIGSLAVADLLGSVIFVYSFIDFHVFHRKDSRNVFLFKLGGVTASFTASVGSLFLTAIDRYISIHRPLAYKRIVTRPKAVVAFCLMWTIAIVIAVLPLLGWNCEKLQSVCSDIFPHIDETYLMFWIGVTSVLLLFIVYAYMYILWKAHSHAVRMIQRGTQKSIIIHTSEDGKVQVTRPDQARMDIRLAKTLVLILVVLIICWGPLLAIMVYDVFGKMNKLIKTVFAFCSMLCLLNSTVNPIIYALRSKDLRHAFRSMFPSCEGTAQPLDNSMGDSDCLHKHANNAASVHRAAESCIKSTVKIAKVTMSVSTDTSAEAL

## 4-(((benzo[d][1,3]dioxol-5-ylmethyl)(quinoxalin-2-ylmethyl)amino)methyl)-N,N-diethylaniline [Compound 31]
[1]
  SI: selectivity index for CB2, calculated as Ki(CB1)/Ki(CB2) ratio: 2
  Ki: 775 nM
[2]
  Ki: 1270 nM

## CCN(CC)c1ccc(CNCc2cc(OC)c(OC)c(OC)c2)cc1 [Compound 3, N,N-diethyl-4-(((3,4,5-trimethoxybenzyl)amino)methyl)aniline]
[1]
  Ki: 42300 nM

## CCN(CC)c1ccc(CN(Cc2cc(OC)c(OC)c(OC)c2)S(=O)(=O)c2ccc(OC)cc2)cc1 [Compound 4, N-(4-(diethylamino)benzyl)-4-methoxy-N-(3,4,5-trimethoxybenzyl)benzenesulfonamide]
[1]
  SI: selectivity index for CB2, calculated as Ki(CB1)/Ki(CB2) ratio: 50
  Ki: 410 nM
[2]
  Ki: > 20000 nM
  Ki (CB1): no CB1 binding affinity

## CCN(CC)c1ccc(CN(Cc2cc(OC)c(OC)c(OC)c2)S(=O)(=O)c2cccc(C)c2)cc1 [Compound 5, N-(4-(diethylamino)benzyl)-3-methyl-N-(3,4,5-trimethoxybenzyl)benzenesulfonamide]
[1]
  SI: selectivity index for CB2, calculated as Ki(CB1)/Ki(CB2) ratio: 3
  Ki: 291 nM
[2]
  Ki: 732 nM

## CCN(CC)c1ccc(CN(Cc2cc(OC)c(OC)c(OC)c2)S(=O)(=O)c2ccc(C)cc2)cc1 [Compound 6, N-(4-(diethylamino)benzyl)-4-methyl-N-(3,4,5-trimethoxybenzyl)benzenesulfonamide]
[1]
  SI: selectivity index for CB2, calculated as Ki(CB1)/Ki(CB2) ratio: 2
  Ki: 387 nM
[2]
  Ki: 774 nM

## CCN(CC)c1ccc(CN(Cc2cc(OC)c(OC)c(OC)c2)S(=O)(=O)c2ccccc2)cc1 [Compound 7, N-(4-(diethylamino)benzyl)-N-(3,4,5-trimethoxybenzyl)benzenesulfonamide]
[1]
  SI: selectivity index for CB2, calculated as Ki(CB1)/Ki(CB2) ratio: 44
  Ki: 453 nM
[2]
  Ki: > 20000 nM
  Ki (CB1): no affinity

## CCN(CC)c1ccc(CN(Cc2cc(OC)c(OC)c(OC)c2)S(=O)(=O)c2ccc(C(C)C)cc2)cc1 [Compound 8, N-(4-(diethylamino)benzyl)-4-isopropyl-N-(3,4,5-trimethoxybenzyl)benzenesulfonamide]
[1]
  Ki: 230 nM
[2]
  Ki: 122 nM

## CCN(CC)c1ccc(CN(Cc2cc(OC)c(OC)c(OC)c2)S(=O)(=O)c2ccc3ccccc3c2)cc1 [Compound 9, N-(4-(diethylamino)benzyl)-N-(3,4,5-trimethoxybenzyl)naphthalene-2-sulfonamide]
[1]
  Ki: 239 nM
[2]
  Ki: 71 nM

## CCN(CC)c1ccc(CN(Cc2cc(OC)c(OC)c(OC)c2)S(=O)(=O)c2ccc(-c3ccccc3)cc2)cc1 [Compound 10, N-(4-(diethylamino)benzyl)-N-(3,4,5-trimethoxybenzyl)-[1,1′-biphenyl]-4-sulfonamide]
[1]
  SI: selectivity index for CB2, calculated as Ki(CB1)/Ki(CB2) ratio: 62
  Ki: 322 nM
[2]
  Ki: > 20000 nM

## CCN(CC)c1ccc(CN(Cc2cc(OC)c(OC)c(OC)c2)C(=O)c2cnc3ccccc3n2)cc1 [Compound 12, N-(4-(diethylamino)benzyl)-N-(3,4,5-trimethoxybenzyl)quinoxaline-2-carboxamide]
[1]
  SI: selectivity index for CB2, calculated as Ki(CB1)/Ki(CB2) ratio: 52
  Ki: 249 nM
[2]
  Ki: 13000 nM

## CCN(CC)c1ccc(CN(Cc2cc(OC)c(OC)c(OC)c2)S(=O)(=O)c2ccc(OC(F)(F)F)cc2)cc1 [Compound 13, N-(4-(diethylamino)benzyl)-4-(trifluoromethoxy)-N-(3,4,5-trimethoxybenzyl)benzenesulfonamide]
[1]
  SI: selectivity index for CB2, calculated as Ki(CB1)/Ki(CB2) ratio: 2
  Ki: 990 nM
[2]
  Ki: 1240 nM

## CCN(CC)c1ccc(CN(Cc2cc(OC)c(OC)c(OC)c2)S(=O)(=O)c2ccccc2C)cc1 [Compound 14, N-(4-(diethylamino)benzyl)-2-methyl-N-(3,4,5-trimethoxybenzyl)benzenesulfonamide]
[1]
  SI: selectivity index for CB2, calculated as Ki(CB1)/Ki(CB2) ratio: 2
  Ki: 157 nM
[2]
  Ki: 180 nM

## CCN(CC)c1ccc(CN(Cc2cc(OC)c(OC)c(OC)c2)S(=O)(=O)c2cccs2)cc1 [Compound 16, N-(4-(diethylamino)benzyl)-N-(3,4,5-trimethoxybenzyl)thiophene-2-sulfonamide]
[1]
  SI: selectivity index for CB2, calculated as Ki(CB1)/Ki(CB2) ratio: 32
  Ki: 639 nM
[2]
  Ki: > 20000 nM

## CCN(CC)c1ccc(CN(Cc2cc(OC)c(OC)c(OC)c2)S(=O)(=O)c2ccc(OC)c(OC)c2)cc1 [Compound 17, N-(4-(diethylamino)benzyl)-3,4-dimethoxy-N-(3,4,5-trimethoxybenzyl)benzenesulfonamide]
[1]
  Ki: 657 nM

## CCN(CC)c1ccc(CNCc2cccnc2)cc1 [Compound 20, N,N-diethyl-4-(((pyridin-3-ylmethyl)amino)methyl)aniline]
[1]
  Ki: > 20000 nM

## CCN(CC)c1ccc(CN(Cc2cccnc2)C(=O)c2cccs2)cc1 [Compound 21, N-(4-(diethylamino)benzyl)-N-(pyridin-3-ylmethyl)thiophene-2-carboxamide]
[1]
  Ki: 1020 nM

## CCN(CC)c1ccc(CN(Cc2cccnc2)C(=O)c2cnc3ccccc3n2)cc1 [Compound 22, N-(4-(diethylamino)benzyl)-N-(pyridin-3-ylmethyl)quinoxaline-2-carboxamide]
[1]
  Ki: 1200 nM

## CCN(CC)c1ccc(CN(Cc2cccnc2)S(=O)(=O)/C=C/c2ccccc2)cc1 [Compound 23, (E)-N-(4-(diethylamino)benzyl)-2-phenyl-N-(pyridin-3-ylmethyl)ethene-1-sulfonamide]
[1]
  SI: selectivity index for CB2, calculated as Ki(CB1)/Ki(CB2) ratio: 6
  Ki: 899 nM
[2]
  Ki: 5460 nM

## CCN(CC)c1ccc(CN(Cc2cccnc2)S(=O)(=O)c2ccc3ccccc3c2)cc1 [Compound 24, N-(4-(diethylamino)benzyl)-N-(pyridin-3-ylmethyl)naphthalene-2-sulfonamide]
[1]
  SI: selectivity index for CB2, calculated as Ki(CB1)/Ki(CB2) ratio: 14
  Ki: 866 nM
[2]
  Ki: 12000 nM

## CCN(CC)c1ccc(CN(Cc2cccnc2)S(=O)(=O)c2ccc(-c3ccccc3)cc2)cc1 [Compound 25, N-(4-(diethylamino)benzyl)-N-(pyridin-3-ylmethyl)-[1,1′-biphenyl]-4-sulfonamide]
[1]
  SI: selectivity index for CB2, calculated as Ki(CB1)/Ki(CB2) ratio: 21
  Ki: 946 nM
[2]
  Ki: > 20000 nM

## CCN(CC)c1ccc(CNCc2ccc3c(c2)OCO3)cc1 [Compound 28, 4-(((benzo[d][1,3]dioxol-5-ylmethyl)amino)methyl)-N,N-diethylaniline]
[1]
  Ki: > 20000 nM

## CCN(CC)c1ccc(CN(Cc2ccc3c(c2)OCO3)S(=O)(=O)/C=C/c2ccccc2)cc1 [Compound 29, (E)-N-(benzo[d][1,3]dioxol-5-ylmethyl)-N-(4-(diethylamino)benzyl)-2-phenylethene-1-sulfonamide]
[1]
  SI: selectivity index for CB2, calculated as Ki(CB1)/Ki(CB2) ratio: 3
  Ki: 381 nM
[2]
  Ki: 1160 nM

## CCN(CC)c1ccc(CN(Cc2ccc3c(c2)OCO3)S(=O)(=O)c2ccc3ccccc3c2)cc1 [Compound 33, N-(benzo[d][1,3]dioxol-5-ylmethyl)-N-(4-(diethylamino)benzyl)naphthalene-2-sulfonamide]
[1]
  Ki: 882 nM

## CCN(CC)c1ccc(CN(Cc2ccc3c(c2)OCO3)S(=O)(=O)c2ccc(-c3ccccc3)cc2)cc1 [Compound 34, N-(benzo[d][1,3]dioxol-5-ylmethyl)-N-(4-(diethylamino)benzyl)-[1,1′-biphenyl]-4-sulfonamide]
[1]
  Ki: 2000 nM

## CCCCCNCc1ccc(N(CC)CC)cc1 [Compound 36, N,N-diethyl-4-((pentylamino)methyl)aniline]
[1]
  Ki: 40200 nM

## CCCCCN(Cc1ccc(N(CC)CC)cc1)S(=O)(=O)c1ccc(-c2ccccc2)cc1 [Compound 42, N-(4-(diethylamino)benzyl)-N-pentyl-[1,1′-biphenyl]-4-sulfonamide]
[1]
  Ki: 3150 nM
